Data as given in patent US10757941B2, “Microbiocidal oxadiazole derivatives” (SYNGENTA PARTICIPATIONS AG, priority 2016, dated 2020).

Experiments:
[1] = test system: Uromyces viciae-fabael; assay: Fungicidal activity against Uromyces viciae-fabae / field bean / leaf disc preventative (faba-bean rust); format: in vivo; details: foliar, 288 h, 100 ppm in the applied formulation, field bean leaf discs, preventative (inoculated two hours after application), assessed 12 days after application, compared to untreated, read-out: disease control
How it was run: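 Field bean leaf discs on water agar treated with compound in acetone plus spreader, then inoculated 2 h later by spraying U. viciae-fabae spores on the lower surface. Incubation at 22° C, 18 h day, 70% RH; percent disease control versus untreated scored 12 days after application.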

[2] = test system: Glomerella lagenarium (Colletotrichum lagenarium); assay: Fungicidal activity against Glomerella lagenarium (Colletotrichum lagenarium) liquid culture / cucumber / preventative (anthracnose); format: cell-based; details: Colletotrichum orbiculare; 20 ppm in the applied formulation; liquid culture in PDB, 24° C.; inhibition of growth measured photometrically 3 to 4 days after application; compared to untreated; read-out: disease control
How it was run: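 Conidia of C. lagenarium from cryogenic storage mixed into potato dextrose broth and added to test compound (DMSO solution) in microtiter plates; incubated at 24° C. Growth inhibition read photometrically 3 to 4 days after application, as percent activity versus untreated check.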

[3] = test system: Puccinia recondita f. Sp. Tritici; assay: Fungicidal activity against Puccinia recondita f. sp. tritici / wheat / leaf disc preventative (brown rust); format: in vivo; details: foliar, 200 ppm in the applied formulation, wheat leaf segments cv. Kanzler, preventative (inoculated 1 day after application), assessed 7 to 9 days after application, compared to untreated, read-out: disease control
How it was run: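 Wheat cv. Kanzler leaf segments on agar sprayed with formulated compound diluted in water; spore inoculation 1 day after application. Incubated at 19° C., 75% rh, 12 h light/12 h dark; percent disease control versus untreated scored 7 to 9 days after application.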

[4] = test system: Phakopsora pachyrhizi; assay: Fungicidal activity against Phakopsora pachyrhizi / soybean / leaf disc preventative (Asian soybean rust); format: in vivo; details: foliar, 200 ppm in the applied formulation, soybean leaf disks, preventative (inoculated one day after application), assessed 12 to 14 days after application, compared to untreated, read-out: disease control
How it was run: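 Preventative test: soybean leaf discs on water agar sprayed with compound diluted in water, inoculated with spore suspension on lower surface one day later. Incubated 24-36 h dark at 20° C., 75% rh, then 12 h light/day; percent disease control versus untreated assessed 12 to 14 days after application.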

[5] = test system: Puccinia recondita f. Sp. Tritici; assay: Fungicidal activity against Puccinia recondita f. sp. tritici / wheat / leaf disc curative (brown rust); format: in vivo; details: foliar, 200 ppm in the applied formulation, wheat leaf segments cv. Kanzler, curative (applied 1 day after inoculation), assessed 6 to 8 days after application, compared to untreated, read-out: disease control
Protocol: Leaf disks or leaf segments of various plant species are cut from plants grown in a greenhouse. The cut leaf disks or segments are placed in multiwell plates (24-well format) onto water agar. The leaf disks are sprayed with a test solution before (preventative) or after (curative) inoculation. Compounds to be tested are prepared as DMSO solutions (max. 10 mg/ml) which are diluted to the appropriate concentration with 0.025% Tween20 just before spraying. The inoculated leaf disks or segments are incubated under defined conditions (temperature, relative humidity, light, etc.) according to the respective test system. A single evaluation of disease level is carried out 3 to 14 days after inoculation, depending on the pathosystem. Percent disease control relative to the untreated check leaf disks or segments is then calculated. Example 2: Fungicidal Activity Against Puccinia recondita f. Sp. Tritici/Wheat/Leaf Disc Curative (Brown Rust) Wheat leaf segments cv. Kanzler are placed on agar in multiwell plates (24-well format). The leaf segments are then inoculated with a spore suspension of the fungus. Plates were stored in darkness at 19° C. and 75% relative humidity. The formulated test compound diluted in water was applied 1 day after inoculation. The leaf segments were incubated at 19° C. and 75% relative humidity under a light regime of 12 hours light/12 hours darkness in a climate cabinet and the activity of a compound was assessed as percent disease control compared to untreated when an appropriate level of disease damage appears in untreated check leaf segments (6 to 8 days after application). The following compounds at 200 ppm in the applied formulation give at least 80% disease control in this test when compared to untreated control leaf disks under the same conditions, which show extensive disease development.

CC(NC(=O)c1ccc(-c2noc(C(F)(F)F)n2)c(F)c1)C1CC1 (stereo not shown) [Compound 1.25, N-(1-cyclopropylethyl)-3-fluoro-4-[5-(trifluoromethyl)-1,2,4-oxadiazol-3-yl]benzamide]
≥ 80%: pest or weed control at 100 ppm [1] | inhibition of growth at 20 ppm [2] | pest or weed control at 200 ppm [3] | pest or weed control at 200 ppm [4] | pest or weed control at 200 ppm [5]

Cc1ccc(CNC(=O)c2ccc(-c3noc(C(F)(F)F)n3)c(F)c2)o1 [Compound 1.28, 3-fluoro-N-[(5-methyl-2-furyl)methyl]-4-[5-(trifluoromethyl)-1,2,4-oxadiazol-3-yl]benzamide]
≥ 80%: pest or weed control at 100 ppm [1] | inhibition of growth at 20 ppm [2] | pest or weed control at 200 ppm [3] | pest or weed control at 200 ppm [4] | pest or weed control at 200 ppm [5]
